Reference: the NIST ThermoML archive (doi:10.1021/je5008795)

Key:
[1] = for Normal melting temperature: DTA; for mass density: 298.15 K, 101 kPa, Vibrating tube method; for vapor or sublimation pressure: Transpiration method
[2] = Molar enthalpy of transition or fusion; conditions: Crystal; DSC
[3] = refractive index (Na D-line) (dimensionless); conditions: 298.15 K; 101.33 kPa; Liquid; Standard Abbe refractometry
[4] = refractive index (Na D-line) (dimensionless); xn = mol fraction of the nth substance listed; conditions: 298.15 K, 101 kPa, Liquid, Standard Abbe refractometry
[5] = xn = mol fraction of the nth substance listed; conditions: 298.15 K, 101 kPa, Liquid, Vibrating tube method

Brc1c2ccccc2c(Br)c2ccccc12 [9,10-dibromoanthracene]
Conditions	Normal melting temperature [°C]
[1], Crystal	224.7

Conditions	Molar enthalpy of transition or fusion [kcal/mol]
[2]	6.86

ClC(Cl)(Cl)Cl [tetrachloromethane]
Conditions	refractive index
[3]	1.45715

Conditions	mass density [kg/m3]
[1], Liquid	1584.26

c1ccccc1 [benzene]
Conditions	refractive index
[3]	1.49755

Conditions	mass density
[1], Liquid	873.633 kg/m3 [middle of 6 runs]

c1ccccc1 [benzene] + Brc1ccc(-c2ccc(Br)cc2)cc1
x2 = 0
Conditions	mass density [kg/m3]	refractive index
[4]	–	1.49755
[5]	873.633	–

Clc1c2ccccc2c(Cl)c2ccccc12 [9,10-dichloroanthracene]
Conditions	Normal melting temperature [°C]
[1], Crystal	213.5

Conditions	Molar enthalpy of transition or fusion [kcal/mol]
[2]	6

ClC(Cl)(Cl)Cl [tetrachloromethane] + Clc1c(Cl)c(Cl)c(Cl)c(Cl)c1Cl
x2 = 0
Conditions	mass density [kg/m3]	refractive index
[4]	–	1.45715
[5]	1584.26	–

Brc1ccc(-c2ccccc2)cc1 [4-bromo-1,1'-biphenyl] + c1ccccc1
Conditions	mass density, x1 = 0.00109 [kg/m3]	mass density, x1 = 0.00186 [kg/m3]	mass density, x1 = 0.00189 [kg/m3]	mass density, x1 = 0.00237 [kg/m3]	refractive index, x1 = 0.00109	refractive index, x1 = 0.00186	refractive index, x1 = 0.00189	refractive index, x1 = 0.00237
[4]	–	–	–	–	1.49787	1.4981	1.49809	1.4982
[5]	874.692	875.469	875.45	875.983	–	–	–	–

Brc1ccc(-c2ccccc2)cc1 [4-bromo-1,1'-biphenyl]
[1], Crystal
Conditions	vapor or sublimation pressure [kPa]
303.2 K	9e-05
308.2 K	0.00016
313 K	0.00027
318.3 K	0.00048
323.4 K	0.00083
326.2 K	0.00109
328.2 K	0.00137
333.3 K	0.0023
338.3 K	0.00364
343.1 K	0.0056
348.3 K	0.00907
353 K	0.01426
355.7 K	0.0165
358.4 K	0.02207
360.2 K	0.0253

Conditions	Normal melting temperature [°C]
[1], Crystal	89.0

Conditions	Molar enthalpy of transition or fusion [kcal/mol]
[2]	3.9

Brc1cccc(Br)c1 [1,3-dibromobenzene]
[1], Liquid
Conditions	vapor or sublimation pressure [kPa]
276.4 K	0.00508
278.7 K	0.00646
281.1 K	0.00785
282.3 K	0.0086
284.7 K	0.01072
286.9 K	0.01274
288.8 K	0.01468
289.2 K	0.0154
292.3 K	0.01899
292.8 K	0.01997
295 K	0.02324
296.2 K	0.02592
298.8 K	0.03143
301 K	0.03698
301.1 K	0.03822
304.2 K	0.04771
304.9 K	0.0474
307.2 K	0.05893
308.9 K	0.06635
310 K	0.07138
312.9 K	0.08294
313.3 K	0.08608
315.2 K	0.1012
317.8 K	0.1178

Brc1ccc(Br)c2ccccc12 [1,4-dibromonaphthalene]
Conditions	Normal melting temperature [°C]
[1], Crystal	80.0

Conditions	Molar enthalpy of transition or fusion [kcal/mol]
[2]	5.04

Brc1ccc(Br)cc1 [1,4-dibromobenzene]
[1], Crystal
Conditions	vapor or sublimation pressure [kPa]
296.5 K	0.00693
299.5 K	0.00922
302.4 K	0.01272
303.5 K	0.01383
305.4 K	0.01701
308.4 K	0.02188
309.4 K	0.02467
311.4 K	0.02936
314.4 K	0.03757
317.4 K	0.04642
319.4 K	0.05898
320.4 K	0.06313
323.4 K	0.08309
329.6 K	0.143

c1ccccc1 [benzene] + Brc1ccc(-c2ccccc2)cc1
x2 = 0
Conditions	mass density [kg/m3]	refractive index
[4]	–	1.49755
[5]	873.616	–

Brc1ccc(Br)cc1 [1,4-dibromobenzene] + c1ccccc1
Conditions	mass density, x1 = 0.0018 [kg/m3]	mass density, x1 = 0.00185 [kg/m3]	mass density, x1 = 0.0025 [kg/m3]	mass density, x1 = 0.0033 [kg/m3]	refractive index, x1 = 0.0018	refractive index, x1 = 0.00185	refractive index, x1 = 0.0025	refractive index, x1 = 0.0033
[4]	–	–	–	–	1.49781	1.49784	1.49795	1.49808
[5]	876.211	876.342	877.295	878.419	–	–	–	–

c1ccccc1 [benzene] + Clc1ccc(Br)cc1
x2 = 0
Conditions	mass density [kg/m3]	refractive index
[4]	–	1.49755
[5]	873.613	–

Brc1ccccc1Br [1,2-dibromobenzene]
[1], Liquid
Conditions	vapor or sublimation pressure [kPa]
290.3 K	0.01251
292.4 K	0.01408
292.5 K	0.01451
295.8 K	0.01802
298.2 K	0.02158
301.2 K	0.02661
304.2 K	0.03482
307.3 K	0.04115
310.2 K	0.05236
313.2 K	0.06399
316.3 K	0.07736
319.3 K	0.09284
320.6 K	0.09686
322.1 K	0.1075
325.2 K	0.1324
325.3 K	0.135
328.2 K	0.1579

Brc1ccc(-c2ccc(Br)cc2)cc1 [4,4'-dibromo-1,1'-biphenyl] + c1ccccc1
Conditions	mass density, x1 = 0.00076 [kg/m3]	mass density, x1 = 0.0009 [kg/m3]	mass density, x1 = 0.00107 [kg/m3]	mass density, x1 = 0.00116 [kg/m3]	refractive index, x1 = 0.00076	refractive index, x1 = 0.0009	refractive index, x1 = 0.00107	refractive index, x1 = 0.00116
[4]	–	–	–	–	1.49787	1.49791	1.49796	1.49802
[5]	875.001	875.213	875.48	875.632	–	–	–	–

Brc1ccccc1Br [1,2-dibromobenzene] + c1ccccc1
Conditions	mass density, x1 = 0.00278 [kg/m3]	mass density, x1 = 0.00365 [kg/m3]	mass density, x1 = 0.00738 [kg/m3]	mass density, x1 = 0.01251 [kg/m3]	refractive index, x1 = 0.00278	refractive index, x1 = 0.00365	refractive index, x1 = 0.00738	refractive index, x1 = 0.01251
[4]	–	–	–	–	1.49816	1.49829	1.49882	1.49961
[5]	877.563	878.834	884.292	891.807	–	–	–	–

Brc1ccc(-c2ccc(Br)cc2)cc1 [4,4'-dibromo-1,1'-biphenyl]
[1], Crystal
Conditions	vapor or sublimation pressure [kPa]
358.1 K	0.00038
363.9 K	0.00067
365.4 K	0.00077
368.4 K	0.00099
373.5 K	0.00162
378.5 K	0.00243
383.5 K	0.00367
388.6 K	0.00579
393.3 K	0.00851
396.6 K	0.01049
399.6 K	0.0138
400.4 K	0.0144
402.6 K	0.0171
404.4 K	0.02039

Clc1c2ccccc2cc2ccccc12 [9-chloroanthracene]
Conditions	Normal melting temperature [°C]
[1], Crystal	103.5

Conditions	Molar enthalpy of transition or fusion [kcal/mol]
[2]	5.26

c1ccccc1 [benzene] + Brc1ccc(Br)c2ccccc12
x2 = 0
Conditions	mass density [kg/m3]	refractive index
[4]	–	1.49755
[5]	873.652	–

Brc1ccc(Br)c2ccccc12 [1,4-dibromonaphthalene] + c1ccccc1
Conditions	mass density, x1 = 0.00087 [kg/m3]	mass density, x1 = 0.00189 [kg/m3]	mass density, x1 = 0.00208 [kg/m3]	mass density, x1 = 0.00321 [kg/m3]	refractive index, x1 = 0.00087	refractive index, x1 = 0.00189	refractive index, x1 = 0.00208	refractive index, x1 = 0.00321
[4]	–	–	–	–	1.49786	1.4982	1.49828	1.49872
[5]	875.112	876.792	877.158	879.019	–	–	–	–

c1ccccc1 [benzene] + Brc1ccc(Br)cc1
x2 = 0
Conditions	mass density [kg/m3]	refractive index
[4]	–	1.49755
[5]	873.671	–

Clc1ccc(Br)cc1 [1-bromo-4-chlorobenzene] + c1ccccc1
Conditions	mass density, x1 = 0.00231 [kg/m3]	mass density, x1 = 0.00253 [kg/m3]	mass density, x1 = 0.00268 [kg/m3]	refractive index, x1 = 0.00231	refractive index, x1 = 0.00253	refractive index, x1 = 0.00268
[4]	–	–	–	1.49779	1.49781	1.49782
[5]	875.875	876.093	876.25	–	–	–

c1ccccc1 [benzene] + Brc1ccccc1Br
x2 = 0
Conditions	mass density [kg/m3]	refractive index
[4]	–	1.49776
[5]	873.478	–

Clc1c(Cl)c(Cl)c(Cl)c(Cl)c1Cl [hexachlorobenzene] + ClC(Cl)(Cl)Cl
Conditions	mass density, x1 = 0.00028 [kg/m3]	mass density, x1 = 0.00052 [kg/m3]	mass density, x1 = 0.00066 [kg/m3]	mass density, x1 = 0.00094 [kg/m3]	refractive index, x1 = 0.00028	refractive index, x1 = 0.00052	refractive index, x1 = 0.00066	refractive index, x1 = 0.00094
[4]	–	–	–	–	1.45724	1.45734	1.45735	1.45743
[5]	1584.37	1584.53	1584.53	1584.63	–	–	–	–
